Laboratory results taken from paper PMC7066245 (Scientific Reports, 2020).
Where two headings read alike, the source gives them in different places.

Assays:
[1] = system: RPMI8226 myeloma cancer cells; test: cells; assay type: cell-based, human; conditions: read-out: IC50 RPMI8226
[2] = system: THP1 acute monocytic leukemia cells; test: cells; assay type: cell-based, human; conditions: read-out: IC50 THP1
[3] = system: HL60 promyelocytic leukemia cells; test: cells; assay type: cell-based, human; conditions: read-out: IC50 HL60
THP1 cells [4] = assay type: cell-based, human; parameters: concentration or dose not given beside the values
THP1 cells [5] = test: annexin V/propidium iodide apoptosis assay, THP1; assay type: cell-based, human; conditions: THP1, 48 h, 0.3 μM, annexin V/PI
Description: (§1) Double staining of cells with Annexin V and propidium iodide (PI) was used according to the protocol described in our previous article. This method is a useful tool for distinguishing viable cells (unstained with either fluorochrome) from early apoptotic cells (stained only with Annexin V), late apoptotic (stained with Annexin V and propidium iodide) and necrotic (dead) cells (stained only with PI).
(§2) Briefly, 5 × 10^5 control and drug treated cells were washed with cold PBS and resuspended in 500 μl binding buffer (delivered from producer) that contained 5 μl of Annexin V fluorescein isothiocyanate (FITC), 5 μl of PI and stained for 15 minutes in room temperature. Finally, at least 10^4 cells were analyzed for FITC and PI fluorescence (Ex ~488 nm; Em ~530 nm) using a flow cytometer (LSR II, Becton Dickinson). The cells stained with the annexin V/propidium iodide mixture were then visualized using fluorescence microscopy (Olympus IX70, Japan), magnification × 200.

RPMI8226 cells [6] = assay type: cell-based, human
[7] = system: caspase-3/-7 in HL60 cells; assay type: cell-based, human
[8] = system: caspase-3/-7 in THP1 cells; assay type: cell-based, human
[9] = system: caspase-3/-7 in RPMI8226 cells; assay type: cell-based, human
[10] = system: intracellular calcium (Ca2+) in HL60 cells; test: intracellular calcium measurement (Fluo-4-NW), HL60; assay type: cell-based, human; conditions: HL60, IC50 dose
Procedure: (§3) Intracellular calcium level was determined using the fluorescent probe Fluo-4NW according to the protocol described in our previous article. After entering the cell, Fluo-4NW is converted by cytosolic hydrolases to the active form, having the possibility of binding of calcium ions. As a result of joining of calcium ions, the probe emits fluorescence (λem = 538 nm) after excitation with light of wavelength 485 nm.
(§4) Cells were cultured and treated with investigated compounds on Petri dishes. Next, the cells were plated in 96-well black fluorimetric plates (2 × 10^4 cells/well). The growth medium was removed and the cells were washed with PBS in order to eliminate sources of baseline fluorescence. Finally a dye loading solution (Fluo-4-NW dye, 4-[(Dipropylamino)sulfonyl] benzoic acid (Probenecid) - used to inhibit extrusion of the indicator out of the cell by organic anion transporters, Hanks’ balanced salt solution (HBSS), 20 mM N-(2- hydroxyethyl)piperazine-N’-(2-ethanesulfonic acid) buffer solution (HEPES)) was added in a volume of 100 μl per well and incubated for 30 min in the total darkness at 37 °C, and then for next 30 min. at room temperature. The measurement was done on Fluoroskan Ascent FL microplate reader (Labsystems, Sweden) using 494 nm excitation and 516 nm emission wavelengths.

[11] = system: normal peripheral blood-derived mononuclear cells (PBMC); test: cells; assay type: cell-based; conditions: read-out: IC50 PBMC
[12] = system: intracellular calcium (Ca2+) in THP1 cells; test: intracellular calcium measurement (Fluo-4-NW), THP1; assay type: cell-based, human; conditions: THP1, IC50 dose, 4 h
Procedure: as §3, §4

RPMI8226 cells [13] = test: annexin V/propidium iodide apoptosis assay, RPMI8226; assay type: cell-based, human; conditions: RPMI8226, 48 h, 3 µM, annexin V/PI
Description: as §1, §2

HL60 cells = test: annexin V/propidium iodide apoptosis assay, HL60; assay type: cell-based, human; conditions: HL60, 48 h, 0.7 μM, annexin V/PI
Description: as §1, §2

caspase-9 in THP1 cells = assay type: cell-based, human

## CCCN(C=NC(Cc1ccc(N(CCCl)CCCl)cc1)C(=O)O)CCC (centres unmarked) [DIPR-MEL]
[1]; Homo sapiens, RPMI-8226, 48 h
  IC50: > 30 µM
[2]; Homo sapiens, THP-1, 48 h
  IC50: > 30 µM
[3]; Homo sapiens, HL-60, 48 h
  IC50: > 30 µM

## CCCN(C=NC(Cc1ccc(N(CCCl)CCCl)cc1)C(=O)OCC)CCC (centres unmarked) [EE-DIPR-MEL]
THP1 cells [4]
  DNA damage (tail DNA), THP1: ~ 7%
[1]; Homo sapiens, RPMI-8226, 48 h
  IC50: 4.85 ± 0.195 µM
[1]
  IC50: 5.94 µM
THP1 cells [5]
  late apoptotic cells, THP1: comparable to that of the unmodified drug
RPMI8226 cells [6]
  DNA damage (tail DNA), RPMI8226: comparable to that of melphalan
[2]; Homo sapiens, THP-1, 48 h
  IC50: 0.69 µM
[3]; Homo sapiens, HL-60, 48 h
  IC50: 1.05 µM

## CCOC(=O)C(N)Cc1ccc(N(CCCl)CCCl)cc1 (centres unmarked) [EE-MEL]
[7]
  Caspase 3 activity HL-60, 24 h: 1225.64 ± 155.22%
THP1 cells [4]
  DNA damage (tail DNA), THP1: ~ 15%
[1]
  IC50: 1.17 µM
[8]
  Caspase 3 activity THP1, 24 h: 788.85 ± 83.40%
[9]
  Caspase 3 activity RPMI8226, 24 h: 656.19 ± 221.7%
[10]
  fold increase of intracellular calcium, HL60, 24 h: approx. 2 fold
RPMI8226 cells [6]
  DNA damage (tail DNA), RPMI8226: ~ 38%
[2]
  IC50: 0.35 µM
[11]
  IC50: 2.2 ± 0.25 µM
[3]
  IC50: 0.7 µM

## CCOC(=O)C(Cc1ccc(N(CCCl)CCCl)cc1)N=CN1CCOCC1 (centres unmarked) [EE-MOR-MEL]
[7]
  Caspase 3 activity HL-60, 24 h: 1127.68 ± 39.24%
THP1 cells [4]
  DNA damage (tail DNA), THP1: ~ 13%
[1]; Homo sapiens, RPMI-8226, 48 h
  IC50: 3.13 µM
[8]
  Caspase 3 activity THP1, 24 h: 981.93 ± 51.79%
[12]
  fold increase of intracellular calcium ions, THP1: approx. 2.8 fold
[2]; Homo sapiens, THP-1, 48 h
  IC50: 0.04 µM
[3]; Homo sapiens, HL-60, 48 h
  IC50: 0.32 µM

## CCCN(C=NC(Cc1ccc(N(CCCl)CCCl)cc1)C(=O)OC)CCC (centres unmarked) [EM-DIPR-MEL]
THP1 cells [4]
  DNA damage (tail DNA), THP1: ~ 7%
[1]; Homo sapiens, RPMI-8226, 48 h
  IC50: 5.94 ± 0.65 µM
[1]
  IC50: 4.85 µM
THP1 cells [5]
  late apoptotic cells, THP1: comparable to that of the unmodified drug
RPMI8226 cells [6]
  DNA damage (tail DNA), RPMI8226: comparable to that of melphalan
[2]; Homo sapiens, THP-1, 48 h
  IC50: 0.41 µM
[3]; Homo sapiens, HL-60, 48 h
  IC50: 0.85 µM

## COC(=O)C(Cc1ccc(N(CCCl)CCCl)cc1)N=CN1CCOCC1 (centres unmarked) [EM-MOR-MEL]
THP1 cells [4]
  DNA damage (tail DNA), THP1: ~ 13%
[1]; Homo sapiens, RPMI-8226, 48 h
  IC50: 3.6 µM
[2]; Homo sapiens, THP-1, 48 h
  IC50: 0.07 ± 0.004 µM
[11]; PBMC, 48 h
  IC50: 6.41 ± 0.85 µM
[3]; Homo sapiens, HL-60, 48 h
  IC50: 0.49 ± 0.098 µM

## N[C@@H](Cc1ccc(N(CCCl)CCCl)cc1)C(=O)O [MEL, melphalan, reference compound]
[7]
  Caspase 3 activity HL-60, 24 h: 736.92 ± 105.48%
RPMI8226 cells [13]
  late apoptotic cells, RPMI8226: approximately 25%
[1]; Homo sapiens, RPMI-8226, 48 h
  IC50: 8.9 µM
[8]
  Caspase 3 activity THP1, 24 h: 429.08 ± 48.10%
HL60 cells
  late apoptotic cells, HL60: ~35%
caspase-9 in THP1 cells
  Caspase 9 activity THP1, 24 h: 316.5 ± 17.31%
[9]
  Caspase 3 activity RPMI8226, 24 h: 463.75 ± 64.5%
THP1 cells [5]
  late apoptotic cells, THP1: ~17%
[12]; control = 100%
  level of intracellular calcium, THP1: 131.27 ± 10.08%
[2]; Homo sapiens, THP-1, 48 h
  IC50: 6.26 µM
[3]; Homo sapiens, HL-60, 48 h
  IC50: 3.78 µM

## O=C(O)C(Cc1ccc(N(CCCl)CCCl)cc1)N=CN1CCOCC1 (centres unmarked) [MOR-MEL]
[1]; Homo sapiens, RPMI-8226, 48 h
  IC50: > 30 µM
[2]; Homo sapiens, THP-1, 48 h
  IC50: > 30 µM
[3]; Homo sapiens, HL-60, 48 h
  IC50: > 30 µM
